Laboratory results: article PMC7600264, “Quasi-Irreversible Inhibition of CYP2D6 by Berberine” (Pharmaceutics, 2020)
Where two headings read alike, the source gives them in different places.

Columns and labels:
CYP2D6 [1] = biological target: T1, CYP2D6 (Homo sapiens, UniProt P10635); assay: Kinetic parameters for MDI of CYP2D6 in pooled HLM
Experimental: (§1) BBR (0–16 μM) was incubated with pooled HLM (0.2 mg/mL), NADPH (1 mM), and dextromethorphan (5 µM) in phosphate buffer (0.1 M; pH 7.4) for various incubation time periods (0–30 min). The apparent inactivation rate constants (kobs) at various BBR concentrations were estimated by fitting first-order kinetics to the relative enzyme activity vs. incubation time profiles. The rate of enzyme inactivation (kinact) and the inhibition constant (KI) were determined by fitting the following Equation (1) to the kobs values at various inhibitor concentrations Equation (1) [31]:(1) 1/kobs=KI/kinact×1/I+1/kinact

CYP2D6 [2] = biological target: T1, CYP2D6; conditions: microsomes
Experimental: as §1

CYP2D6 [3] = biological target: T1, CYP2D6; set-up: method as in PMID 25145883; conditions: HLM; previous study; cited from earlier work
[4] = tested on: microsomal metabolism of nebivolol; assay: BBR-nebivolol interaction in pooled HLM; type: in vitro ADME, human; conditions: nebivolol 1 µM; pooled HLM 1 mg/mL; BBR 0, 1, 3, 10 µM; 60 min
Experimental: The HDI between BBR and nebivolol was assessed using pooled HLM, where nebivolol (1 μM) was incubated with HLM (1 mg/mL) and NADPH-generating system (see Section 2.6) in phosphate buffer (0.1 M; pH 7.4) with BBR at various concentrations (0, 1, 3, and 10 μM). The mixture (total volume of 200 µL) was incubated at 37 °C for 60 min in a shaking water bath (100 rpm), following a 5 min of pre-incubation at 37 °C. […] The mass transitions of nebivolol and CBZ were m/z 406 to 151 and m/z 237 to 194, respectively.

CYP2D6 [5] = biological target: T1, CYP2D6; conditions: microsomes; remark: listed apart in the source
Experimental: The pre-incubation mixtures consisting of potassium phosphate buffer (0.1 M; pH 7.4), HLM (1 mg/mL), NADPH (1 mM), and inhibitor (total volumes of 180 µL per well) were incubated at 37 °C for 30 min. To verify the reversibility of quasi-irreversible inhibition, potassium ferricyanide (2 mM) was co-incubated with the mixture for 10 min at 37 °C, from which microsomes were re-isolated by ultracentrifugation at 100,000 g for 60 min at 4 °C. The resulting microsomal pellet was washed twice with potassium phosphate buffer (0.1 M; pH 7.4). The obtained microsomes (adjusted to 0.2 mg/mL) were incubated with CYP substrates (25 µM of dextromethorphan for CYP2D6 and 25 µM of MDZ for CYP3A4) and NADPH (1 mM) in potassium phosphate buffer (0.1 M; pH 7.4) for 5 min to measure the CYP activity. The reactions were terminated by the addition of ACN (200 µL) containing CBZ (100 nM).

[6] = biological target: recombinant human CYP2D6 (rhCYP2D6) (Homo sapiens, UniProt P10635); assay: Metabolism-dependent CYP2D6 inhibition assay (IC50 shift) using rhCYP2D6
recombinant human CYP2D6 (rhCYP2D6), sequence (P10635 whole entry): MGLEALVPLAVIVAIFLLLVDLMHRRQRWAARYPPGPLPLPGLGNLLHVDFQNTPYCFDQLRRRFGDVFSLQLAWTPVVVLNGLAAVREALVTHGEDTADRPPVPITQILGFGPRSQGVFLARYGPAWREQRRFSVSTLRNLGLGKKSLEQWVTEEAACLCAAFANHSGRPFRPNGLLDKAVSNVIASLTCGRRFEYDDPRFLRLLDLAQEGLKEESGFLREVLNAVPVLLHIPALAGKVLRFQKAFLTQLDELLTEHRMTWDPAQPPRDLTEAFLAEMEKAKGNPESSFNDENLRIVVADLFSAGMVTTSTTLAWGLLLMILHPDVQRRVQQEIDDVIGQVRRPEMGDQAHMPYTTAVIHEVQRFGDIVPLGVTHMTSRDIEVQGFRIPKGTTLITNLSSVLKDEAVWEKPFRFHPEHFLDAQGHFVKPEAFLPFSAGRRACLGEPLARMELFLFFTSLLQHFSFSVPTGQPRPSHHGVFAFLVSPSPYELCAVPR
Experimental: (§2) Pre-incubation was performed in pooled HLM (0.2 mg/mL) added with BBR, THB, TFD, or DMB, or rhCYP2D6 (10 pmol/mL) added with BBR, with or without NADPH (1 mM) in phosphate buffer (0.1 M; pH 7.4) for 30 min. Then, the CYP2D6 substrate (5 µM of dextromethorphan) and NADPH (1 mM) were added to the mixture and incubated for another 10 min. All incubations were carried out at 37 °C in a shaking water bath (100 rpm) using eight-well tube strips placed in an 8 × 12 rack, where the final volume of each reaction mixture was 200 µL. […] The enzyme reactions were quenched by adding an aliquot (200 µL) of ice-cold ACN containing CBZ (100 nM) as an IS. The samples were centrifuged, and the concentration of CYP2D6 metabolite (i.e., dextrorphan, produced by O-demethylation of dextromethorphan) in supernatants were analyzed using the LC-MS/MS method described in Section 2.2.

[7] = set-up: method as in PMID 19589224, PMID 12562448, PMID 27283523; conditions: clinical PK studies; single administration of BBR; highly variable; cited from earlier work
CYP2D6 [8] = biological target: T1, CYP2D6; assay: in vitro; conditions: pH 7.4
Experimental: as §2

[9] = type: in vitro ADME, human; conditions: precursor 1 µM in pooled HLM with NADPH-generating system, mean ± SD
Experimental: Table 3. Putative M1 metabolite produced in pooled HLM incubated with thalifendine or
Precursor molecules Incubation time (min)a M1 signal at m/z 310 (103 × cps)b
Demethyleneberberine 0 107 ± 3
a Thalifendine or demethyleneberberine (1 μM) was incubated with pooled HLM in the presence of
NADPH-generating system; b Each value represents the mean ± SD for three separate samples. […]

T1 sequence (P10635 whole entry): as above

SMILES	Ki (CYP2D6 [1]) [µM]	kinact (CYP2D6 [1]; human, pooled human liver microsomes, pH 7.4, probe dextromethorphan (5 µM)) [s⁻¹]	kinact/KI against CYP2D6 (CYP2D6 [2]) [mL/min/µmol]	IC50 (CYP2D6 [3]) [µM]	Effect on microsomal clearance of nebivolol [4]	Mode of CYP2D6 inhibition (CYP2D6 [5])	IC50 ([6]; IC50 against rhCYP2D6, pre-incubation with NADPH, 30 min pre-incubation with NADPH) [µM]	IC50 ([6]; IC50 against rhCYP2D6, pre-incubation without NADPH, 30 min pre-incubation in the absence of NADPH) [µM]	Maximum plasma concentration [7]	IC50 shift at 10 min (CYP2D6 [8])	M1 signal at m/z 310 ([9]; incubation time 0 min)	M1 signal at m/z 310 ([9]; incubation time 30 min)
COc1ccc2cc3[n+](cc2c1OC)CCc1cc2c(cc1-3)OCO2 [BBR, berberine]	4.29	0.000417	5.83	~23.5	significantly inhibited	quasi-irreversible	1.73	5.31	less than 1 nM to more than 1 µM	~7.5		
COc1ccc2cc3[n+](cc2c1OC)CCc1cc(O)c(O)cc1-3 [DMB, demethyleneberberine]											107 ± 3 103 × cps	432 ± 27 103 × cps
